# Laboratory results: paper PMC9899896, “Application of a new approach methodology (NAM)-based strategy for genotoxicity assessment of data-poor compounds” (Frontiers in Toxicology, 2023)
# Read-outs that look alike come from different tables or passages of the source.
# Tests used:
# [1] = system: human lymphoblastoid TK6 cells; experiment: TGx-DDI transcriptomic biomarker classification (TempO-Seq S1500+) and BMC modeling; conditions: for TGx-DDI summary classification: TK6 cells, 4H exposure; for Strength / consistency of TGx-DDI response (text): across concentrations and the three statistical analyses; for TGx-DDI classification: overall call from 2-DC, PCA, NSC-PA, S9 condition as in Figure 1
# [2] = Viability assessment (propidium iodide fluorescence, flow cytometry); conditions: human, TK6 lymphoblastoid cells with S9
# [3] = system: human lymphoblastoid TK6 cells; experiment: In vitro MicroFlow assay (flow cytometry-based micronucleus test); conditions: for MicroFlow summary classification (MN induction): TK6 cells, 4H exposure, 24-h sampling; for MicroFlow %MN response (text): positive: >2.5 fold-increase in %MN and p < 0.05 vs vehicle
# [4] = system: human lymphoblastoid TK6 cells; experiment: MultiFlow DNA Damage assay (γH2AX, p53, p-H3, polyploidy); format: cell-based
# Protocol: Treated cells were gently resuspended and 25 µL/well was mixed thoroughly with the labeling solution. The plate was incubated for 30 min at room temperature shielded from light.
# The γH2AX and p53 endpoints were measured based on their median fluorescence intensity (i.e., mean channel fluorescence or MCF) relative to the DMSO solvent control. The p-H3 and polyploidy endpoints were measured based on their frequencies among all events (i.e., all 2n–4n and polyploidy (8n) DNA content). The equations for calculating γH2AX shift, nuclear p53 shift, % polyploidy, and % p-H3 positive events are shown below.
# Latex microspheres were used as counting beads to determine nuclear density.
# Litron developed Global Evaluation Factors (GEF) to identify a biologically significant increase in select biomarker levels.
# A clastogenic or aneugenic call required two successive concentrations that met or exceeded the GEFs in at least 2 of the 4 respective MoA biomarkers. Chemicals that met or exceeded two GEFs in a single non-cytotoxic concentration were designated as “weak” responses. In cases where both clastogen and aneugen biomarkers exceeded the GEF the MoA was considered pan-genotoxic. In cases where less than two biomarkers met the GEFs, the call was non-genotoxic.
# [5] = system: human lymphoblastoid TK6 cells; experiment: Integrated NAM-based test strategy (TGx-DDI + MicroFlow + MultiFlow; ToxPi integration of BMCs); conditions: from TGx-DDI, MicroFlow and MultiFlow calls
# HepaRG™ cells [6] = system: HepaRG™ cells; parameters: method as in Buick et al., 2020; conditions: ref Buick et al., 2020; cited from earlier work
# HepaRG™ cells [7] = system: HepaRG™ cells; parameters: method as in Buick et al., 2020; conditions: ref Buick et al., 2020; cited from earlier work; remark: listed apart in the source
# [8] = follow-up assay; ref Avlasevich et al., 2021; cited from earlier work
# MN = conditions: known apoptogens; ref Avlasevich et al., 2021; cited from earlier work
# [9] = system: human lymphoblastoid TK6 cells
# [10] = system: human lymphoblastoid TK6 cells; experiment: Viability assessment (propidium iodide fluorescence, flow cytometry); conditions: TK6 cells, ± S9, quantified at 24 h via propidium iodide
# chromosome damage [11] = system: chromosome damage; parameters: method as in Matsushima et al., 1999; Von Der Hude et al., 2000; conditions: ref Matsushima et al., 1999; Von Der Hude et al., 2000; cited from earlier work
# chromosome damage [12] = system: chromosome damage; parameters: method as in De Boeck et al., 2005; conditions: ref De Boeck et al., 2005; cited from earlier work
# %MN = system: %MN; parameters: method as in SCCP, 2006; conditions: ref SCCP, 2006, cited from earlier work
# [13] = +S9 (rat liver S9), 3 h recovery
# [14] = +S9, TK6 cells, 4H and 24H sampling
# [15] = -S9, TK6 cells, 4H and 24H sampling
# [16] = GEF-based call, in at least one S9 condition
# [17] = fold-increase over solvent control
molecule,measurement,setting,value
"Cc1ccc(NCCO)c([N+](=O)[O-])c1 [NSACB 8, 2-[(4-methyl-2-nitrophenyl)amino]ethanol]",TGx-DDI summary classification,[1]; [13],+
same,TGx-DDI summary classification,[1]; -S9,-
same,Strength / consistency of TGx-DDI response (text),[1]; listed as 8,weaker DDI responses
same,Strength / consistency of TGx-DDI response (text),[1]; listed as NSACB #8,two DDI calls at the highest concentration by NSC-PA and PCA
same,TGx-DDI classification,[1],DDI
same,viability at 24 h,[2],46%
same,MicroFlow summary classification (MN induction),[3]; +S9,+
same,MicroFlow summary classification (MN induction),[3]; -S9,-
same,MicroFlow %MN response (text),[3]; listed as 8,robust fold-increase in %MN with a clear concentration-response relationship
same,MicroFlow %MN response (text),[3]; listed as #8,only tested positive with S9 conditions
same,MultiFlow summary classification (call and MoA),[4]; [14],-
same,MultiFlow summary classification (call and MoA),[4]; [15],-
same,MultiFlow MoA classification,[4]; [16],non-genotoxic
same,Integrated hazard conclusion,[5],somewhat ambiguous
COc1cc2c(c(OC)c1OC)-c1ccc(OC)c(=O)cc1[C@@H](NC(C)=O)CC2 [colchicine],MN result,HepaRG™ cells [6],positive
same,TGx-DDI classification,HepaRG™ cells [7],negative (non-DDI)
carbonyl cyanide m-chlorphenyl hydrazone [CCCP],MultiFlow classification,[8],non-genotoxicants
same,MicroFlow MN result,MN,induce MN
"Nc1ccc(Cl)cc1C(=O)c1ccccc1 [NSACB 1, 2-amino-5-chlorobenzophenone]",TGx-DDI summary classification,[1]; [13],+
same,TGx-DDI summary classification,[1]; -S9,-
same,Strength / consistency of TGx-DDI response (text),[1]; listed as #1,weaker DDI responses
same,Strength / consistency of TGx-DDI response (text),[1]; listed as NSACB #1,one DDI call at the highest concentration in the NSC-PA only
same,TGx-DDI classification,[1],DDI
same,viability at 24 h,[2],43%
same,MicroFlow summary classification (MN induction),[3]; +S9,+
same,MicroFlow summary classification (MN induction),[3]; -S9,+
same,MicroFlow %MN response (text),[3],robust fold-increase in %MN with a clear concentration-response relationship
same,MultiFlow MoA classification,[4],non-genotoxic
same,MultiFlow summary classification (call and MoA),[4],-
same,MultiFlow biomarkers with responses,[4]; human,"moderate to robust response increase in one of the aneugenic biomarkers (i.e., 4H p-H3)"
same,Integrated hazard conclusion,[5],somewhat ambiguous
"Cc1c2ccccc2c(C)c2c1ccc1ccccc12 [DMBA, 7,12-dimethylbenz[a]anthracene, reference compound]",TGx-DDI summary classification,[9],+
same,Strength / consistency of TGx-DDI response (text),[1],strong TGx-DDI response
same,TGx-DDI classification,[1],DDI
same,Effect on cell viability,[10],caused a decline in viability
same,Chromosome damage in vitro,chromosome damage [11],induce chromosome damage
same,MicroFlow summary classification (MN induction),[3]; +S9,+
same,MicroFlow summary classification (MN induction),[3]; -S9,+
same,MicroFlow %MN response (text),[3],significant fold-increases in %MN
same,MultiFlow summary classification (call and MoA),[4]; [14],+ C
same,MultiFlow summary classification (call and MoA),[4]; [15],-
same,MultiFlow biomarkers with responses,[4]; [17],4H & 24H ɣH2AX
same,Chromosome damage in vivo,chromosome damage [12],induce chromosome damage
"COc1ccc(NCCO)cc1N [NSACB 7, 2-[(3-amino-4-methoxyphenyl)amino]ethanol]",TGx-DDI summary classification,[1]; [13],+
same,TGx-DDI summary classification,[1]; -S9,+
same,Strength / consistency of TGx-DDI response (text),[1],strongest responses
same,TGx-DDI classification,[1],DDI across all concentrations except the lowest
same,MicroFlow summary classification (MN induction),[3]; +S9,+
same,MicroFlow summary classification (MN induction),[3]; -S9,+
same,MicroFlow %MN response (text),[3]; listed as 7,robust fold-increase in %MN with a clear concentration-response relationship
same,MicroFlow %MN response (text),[3]; listed as NSACB #7,stronger %MN frequency in the +S9 condition at the highest concentration
same,In vitro micronucleus result (OECD 487),%MN; with S9,statistically significant and biologically relevant increase in the frequency of %MN
same,In vitro micronucleus result (OECD 487),%MN; without S9,equivocal
same,Strength of MultiFlow biomarker response (text),[4],more moderate responses
same,MultiFlow summary classification (call and MoA),[4]; [14],+ C
same,MultiFlow summary classification (call and MoA),[4]; [15],+ C
same,MultiFlow MoA classification,[4]; [16],clastogens
same,MultiFlow biomarkers with responses,[4]; [17],4H p53 and 4H ɣH2AX
same,Integrated hazard conclusion,[5],"genotoxic in vitro, causing DNA damage via a clastogenic MoA"
C[C@H]1CCC/C=C/[C@@H]2C[C@H](O)C[C@H]2[C@H](O)/C=C/C(=O)O1 [brefeldin A],MultiFlow classification,[8],non-genotoxicants
same,MicroFlow MN result,MN,induce MN
